According to ChEMBL document CHEMBL3046467, “Structure-activity relationship of carboxin-related carboxamides as fungicide” (2011):

Experiments:
Format in all cases: functional
[1] = tested on: Podosphaera xanthii; assay: Fungicidal activity against Podosphaera xanthii (powdery mildew) spores inoculated on leaves of compound pre-treated 1.5 leaf-stage cucumber plants assessed as powdery mildew disease control level at 250 ppm measured after 7 days post fungal inoculation
[2] = tested on: Puccinia recondita; assay: Fungicidal activity against Puccinia recondita spores inoculated on leaves of compound pre-treated 1.5 leaf-stage wheat plants assessed as wheat brown rust disease control level at 250 ppm measured after 8 days post fungal inoculation
[3] = tested on: Botrytis cinerea; assay: Fungicidal activity against Botryotinia fuckeliana spores inoculated on leaves of compound pre-treated seed-leaf stage kidney beans assessed as gray mold disease control level at 500 ppm measured after 4 days post fungal inoculation
[4] = tested on: Pyricularia grisea; assay: Fungicidal activity against Magnaporthe grisea spores inoculated on leaves of compound pre-treated 2 or 3 leaf-stage rice plants assessed as rice blast disease control level at 250 ppm measured after 7 days post fungal inoculation
[5] = tested on: Podosphaera xanthii; assay: Fungicidal activity against Podosphaera xanthii (powdery mildew) spores inoculated on leaves of compound pre-treated 1.5 leaf-stage cucumber plants assessed as powdery mildew disease control level at 25 ppm measured after 7 days post fungal inoculation
[6] = tested on: Puccinia recondita; assay: Fungicidal activity against Puccinia recondita spores inoculated on leaves of compound pre-treated 1.5 leaf-stage wheat plants assessed as wheat brown rust disease control level at 25 ppm measured after 8 days post fungal inoculation
[7] = tested on: Botrytis cinerea; assay: Fungicidal activity against Botryotinia fuckeliana spores inoculated on leaves of compound pre-treated seed-leaf stage kidney beans assessed as gray mold disease control level at 62.5 ppm measured after 4 days post fungal inoculation
[8] = tested on: Pyricularia grisea; assay: Fungicidal activity against Magnaporthe grisea spores inoculated on leaves of compound pre-treated 2 or 3 leaf-stage rice plants assessed as rice blast disease control level at 50 ppm measured after 7 days post fungal inoculation

Row | Structure (SMILES) | Activity [1] | Activity [2] | Activity [3] | Activity [4] | Activity [5] | Activity [6] | Activity [7] | Activity [8]
1 | Cn1cc(C(=O)Nc2ccccc2-c2ccccc2)c(Cl)n1 | <95% | <95% | <95% | <95% |  |  |  | 
2 | CCC(C)c1sccc1NC(=O)c1cn(C)nc1C(F)(F)F (configuration not stated) |  |  |  | <95% | >=50% | >=95% | >=95% | 
3 | Cn1cc(C(=O)Nc2ccccc2-c2ccccc2)c(C(F)(F)F)n1 |  | >=95% |  | <95% | >=50% |  | >=95% | 
4 | O=C(Nc1ccccc1-c1ccccc1)c1cccnc1Cl | <95% |  |  | <95% |  |  | >=50% | 
5 | Cc1nc(C(F)F)c(C(=O)Nc2ccccc2-c2ccccc2)s1 |  | <95% |  | >=95% | >=50% |  | >=95% | 
6 | CC(C)CC(C)c1sccc1NC(=O)c1nccnc1Cl (configuration not stated) | <95% |  |  | >=95% |  | >=95% | >=95% | 
7 | CCC(C)C(C)c1sccc1NC(=O)c1cn(C)nc1C(F)(F)F (configuration not stated) |  |  |  |  | >=95% | >=95% | >=95% | >=50%
8 | CC1=C(C(=O)Nc2ccsc2C(C)CC(C)C)SCCO1 (configuration not stated) | >=95% |  |  | >=95% |  | >=95% | >=95% | 
9 | Cc1nn(C)cc1C(=O)Nc1ccccc1-c1ccccc1 | <95% |  |  | <95% |  |  | >=50% | 
10 | CC1=C(C(=O)Nc2ccccc2-c2ccccc2)CCCO1 |  |  |  | <95% | >=95% | >=50% | >=50% | 
11 | Cc1nn(C)cc1C(=O)Nc1ccsc1C(C)CC(C)C (configuration not stated) | >=95% |  |  |  |  | >=95% | >=95% | >=50%
12 | O=C(Nc1ccccc1-c1ccccc1)c1ccccc1Cl | <95% |  |  | <95% |  |  | >=95% | 
13 | CC(C)CC(C)c1sccc1NC(=O)c1cccnc1Cl (configuration not stated) |  |  |  |  | >=95% |  | >=50% | 
14 | Cc1nc(C(F)(F)F)c(C(=O)Nc2ccccc2-c2ccccc2)s1 |  |  |  | >=95% | >=50% |  | >=95% | 
15 | CC(C)c1ccccc1NC(=O)c1cn(C)nc1C(F)(F)F | >=95% |  |  | <95% |  | >=95% | >=95% | 
16 | CC1CC(C)(C)c2cccc(NC(=O)c3cccnc3Cl)c21 (configuration not stated) | <95% | <95% |  | <95% |  |  | >=50% | 
17 | CC(C)CC(C)c1sccc1NC(=O)c1ccccc1Cl (configuration not stated) |  |  | >=95% | <95% | >=50% | >=95% |  | 
18 | Cc1nc(Cl)c(C(=O)Nc2ccccc2-c2ccccc2)s1 | <95% | <95% | <95% | <95% |  |  |  | 
19 | CCC(C)c1ccccc1NC(=O)c1cn(C)nc1C(F)(F)F (configuration not stated) |  |  |  | <95% | >=50% | >=95% | >=95% | 
20 | Cc1occc1C(=O)Nc1ccccc1-c1ccccc1 | <95% | >=95% |  | >=95% |  |  | >=95% | 
21 | Cc1nc(C)c(C(=O)Nc2ccsc2C(C)CC(C)C)s1 (configuration not stated) |  |  |  |  | >=50% | >=95% | >=95% | >=95%
22 | CC1CC(C)(C)c2cccc(NC(=O)c3cn(C)nc3C(F)(F)F)c21 (configuration not stated) | <95% |  |  | <95% |  | >=95% | >=95% | 
23 | CCC(C)CC(C)c1sccc1NC(=O)c1cn(C)nc1C(F)(F)F (configuration not stated) |  |  |  |  | >=95% | >=95% | >=50% | >=95%

Row | Structure (SMILES) | Activity [1] | Activity [2] | Activity [3] | Activity [4] | Activity [5] | Activity [6] | Activity [7] | Activity [8]
24 | CCCCCC(C)c1sccc1NC(=O)c1cn(C)nc1C(F)(F)F (configuration not stated) |  |  |  | <95% | >=50% | >=95% | >=50% | 
25 | CC(C)CC(C)c1sccc1NC(=O)c1cn(C)nc1C(F)(F)F (configuration not stated) [PENTHIOPYRAD] |  |  |  |  | >=95% | >=95% | >=95% | >=95%
26 | CC1=C(C(=O)Nc2ccccc2-c2ccccc2)SCCO1 |  | <95% |  | <95% | >=50% |  | >=95% | 
27 | CCC(CC)c1sccc1NC(=O)c1cn(C)nc1C(F)(F)F | <95% |  |  | <95% |  | >=50% | >=95% | 
28 | CCCC(C)c1sccc1NC(=O)c1cn(C)nc1C(F)(F)F (configuration not stated) |  |  |  | <95% | >=95% | >=95% | >=95% | 
29 | Cc1ccsc1C(=O)Nc1ccccc1-c1ccccc1 | >=95% | <95% |  | <95% |  |  | >=95% | 
30 | CCCCC(C)c1sccc1NC(=O)c1cn(C)nc1C(F)(F)F (configuration not stated) |  |  |  | >=95% | >=50% | >=95% | >=95% | 
31 | CC(C)CC(C)c1sccc1NC(=O)c1cn(C)nc1Cl (configuration not stated) |  |  |  |  | >=50% | >=95% | >=95% | >=50%
32 | CC(C)CCc1sccc1NC(=O)c1cn(C)nc1C(F)(F)F |  |  |  |  | >=50% | >=95% | >=95% | 
33 | Cc1ccsc1C(=O)Nc1ccsc1C(C)CC(C)C (configuration not stated) |  |  |  |  | >=95% | >=95% | >=95% | >=95%
34 | Cc1nc(C(F)F)c(C(=O)Nc2ccsc2C(C)CC(C)C)s1 (configuration not stated) |  |  |  |  | >=95% | >=95% | >=95% | >=95%
35 | CC(C)CC(C)c1sccc1NC(=O)c1cn(C)nc1C(F)F (configuration not stated) |  |  |  |  | >=95% | >=95% | >=95% | >=95%
36 | Cc1nc(C(F)(F)F)c(C(=O)Nc2ccsc2C(C)CC(C)C)s1 (configuration not stated) |  |  |  |  | >=95% | >=95% | >=95% | 
37 | CC1=C(C(=O)Nc2ccsc2C(C)CC(C)C)CCCO1 (configuration not stated) |  |  |  |  | >=50% | >=95% | >=95% | >=95%
38 | Cn1cc(C(=O)Nc2ccsc2-c2ccccc2)c(C(F)(F)F)n1 |  | <95% |  | <95% | >=50% |  | >=95% | 
39 | Cc1occc1C(=O)Nc1ccsc1C(C)CC(C)C (configuration not stated) |  |  |  |  | >=95% | >=95% | >=95% | >=95%
40 | CC(CC(C)(C)C)c1sccc1NC(=O)c1cn(C)nc1C(F)(F)F (configuration not stated) |  |  | <95% | <95% | >=95% | >=95% |  | 
41 | CC(C)CCC(C)c1sccc1NC(=O)c1cn(C)nc1C(F)(F)F (configuration not stated) |  |  | >=95% | >=95% | >=50% | >=95% |  | 
42 | Cc1nc(C)c(C(=O)Nc2ccccc2-c2ccccc2)s1 | >=95% |  |  | <95% |  |  | >=50% | 
43 | CCc1sccc1NC(=O)c1cn(C)nc1C(F)(F)F |  |  | >=95% |  |  |  |  | 
44 | CC(C)c1sccc1NC(=O)c1cn(C)nc1C(F)(F)F | >=95% |  |  | <95% |  | >=95% | >=95% | 
45 | CC(C)CC(C)c1ccccc1NC(=O)c1cn(C)nc1C(F)(F)F (configuration not stated) |  |  |  |  | >=95% | >=95% | >=95% | >=95%
46 | O=C(Nc1ccccc1-c1ccccc1)c1nccnc1Cl | >=95% | <95% |  | <95% |  |  | >=95% | 
